Measured values published in patent US20250210194A1, “METHODS AND SYSTEMS FOR D[…] HETEROGENEITY” (Foundation Medicine, Inc., priority 2022, published 2025).

Tested on: EGFR driver alteration-positive NSCLC patients
Assay: Progression free survival (PFS) from start of 1st line Osimertinib in a real-world NSCLC patient cohort (Kaplan Meier)
Format: in vivo, human
Conditions: for median progression free survival (mPFS): 45 patients, 1st line Osimertinib
Text: Starting with a patient cohort of 15,035 patients, the data was filtered (for biopsy type and bait set). The data was then filtered to exclude data for patients for whom a computational tumor purity was less than or equal to 20% or for whom a computational tumor purity value was missing. The remaining patient data was divided according to whether the samples were early-stage specimens, late-stage specimens, or of ambiguous origin. For the late-stage specimens, data for patients who were first diagnosed prior to Jan. […] Finally, data was selected for N=135 1st line Osimertinib-treated, EGFR driver alteration-positive NSCLC patients for whom tumor samples were sequenced at most a year prior to start of therapy.
The group of 135 patients were then divided into three tertiles with 45 patients each. Progression free survival (PFS) from start of 1st line Osimertinib was determined as follows: • Index state was the start of 1st line therapy. • Progression date: for patients who received a subsequent line of therapy, the event date was the earliest progression event that occurred more than 14 days after the index date, or date of death, provided that the progression event or date of death occurred before the start date of the subsequent line of therapy plus 14 days. For patients without a subsequent line of therapy, the event date was the earliest progression event that occurred more than 14 days after the index date, or the date of death. • Censor date: patients with a subsequent line of therapy were censored at their last clinic note date if it occurred between the index date and the start date of the subsequent line of therapy plus 14 days. Patients for whom the last clinic note date was not available within this window were censored at their last date of confirmed structured activity (i.e., the last available visit date within the Visit Table) within this time window. Patients without a subsequent line of therapy were censored at their last clinic note date.

C=CC(=O)Nc1cc(Nc2nccc(-c3cn(C)c4ccccc34)n2)c(OC)cc1N(C)CCN(C)C [Osimertinib]
median progression free survival (mPFS) (first tertile (lowest tumor heterogeneity score)): 16.5 months | median PFS (high score group: tumor heterogeneity score >=1, 1st line Osimertinib): 10.8 months | median PFS (low score group: tumor heterogeneity score <1, 1st line Osimertinib): 16.0 months | mPFS (score category High (THS >=1), EGFR CCF category High (CCF >=0.5), N=74): 11.11 | mPFS (score category High (THS >=1), EGFR CCF category Low (CCF <0.5), N=12): 6.54 months | mPFS (score category Low (THS <1), EGFR CCF category High (CCF >=0.5), N=39): 16.01 months | median progression free survival (mPFS) (second tertile (intermediate tumor heterogeneity score)): 10.5 months | median progression free survival (mPFS) (third tertile (highest tumor heterogeneity score)): 11.9 months | Median progression free survival (mPFS) from start of 1st line Osimertinib (whole cohort, N=135 EGFR driver alteration-positive NSCLC patients): 12.7 months
